Source: US20070128217A1 (priority 2003, published 2007)

Tests used:
[1] = system: rabbit serum obtained by immunizing a rabbit with the SARS-CoV strain Frankfurt 1; type: binding; set-up: Binding of a rabbit serum to linear peptides / Binding of a rabbit serum to looped peptides / Rabbit serum linear peptides / Rabbit serum looped peptides / Binding of a rabbit serum to linear peptides of protein N of SARS-CoV Urbani (Rabbit serum linear peptides) / Binding of a rabbit serum to looped/cyclic peptides of protein N of SARS-CoV Urbani (Rabbit serum looped peptides): unit not given here
[2] = system: control sera (pooled serum of ten healthy LUMC hospital workers; commercial negative donor pooled serum from the Dutch bloodbank); type: binding, human; set-up: Binding of Control serum LUMC to linear peptides / Binding of Control serum Blood-bank to linear peptides / Binding of Control serum LUMC to looped peptides / Binding of Control Serum Blood-Bank to Looped peptides / Binding of Control serum LUMC to linear peptides of the protein M of SARS-CoV Urbani / Binding of Control serum Blood-bank to linear peptides of the protein M of SARS-CoV Urbani / Binding of Control serum LUMC to looped peptides of the protein M of SARS-CoV Urbani / Binding of Control Serum Blood-Bank to Looped peptides of the protein M of SARS-CoV Urbani: unit not given here
[3] = system: antibodies in sera from SARS patients (sera 1a, 1b, 2, 6, 37, 62, London, SARS-yellow, SARS-green); type: binding, human; set-up: Binding of serum 6 to linear peptides of protein X1 of SARS-CoV Urbani / Binding of serum 37 to linear peptides of protein X1 of SARS-CoV Urbani / Binding of serum 6 to looped/cyclic peptide (PEPSCAN-ELISA) / Binding of serum 37 to looped/cyclic peptide (PEPSCAN-ELISA) / Binding of serum 37 to looped/cyclic peptides of protein X1 of SARS-CoV Urbani / Binding of serum 6 to linear peptides of protein X2 / Binding of serum 37 to linear peptides of protein X2 / Binding of serum 37 to looped/cyclic peptides of protein X2 of SARS-CoV Urbani / Binding of serum 6 to linear peptides of protein M of SARS-CoV Urbani / Binding of serum 37 to linear peptides of protein M of SARS-CoV Urbani / Binding of serum 6 to looped/cyclic peptides of protein M of SARS-CoV Urbani / Binding of serum 37 to looped/cyclic peptides of protein M of SARS-CoV Urbani / Binding of serum 6 to linear peptides of protein X3 of SARS-CoV Urbani / Binding of serum 37 to linear peptides of protein X3 of SARS-CoV Urbani / Binding of serum 37 to looped/cyclic peptides of protein X3 of SARS-CoV Urbani / Binding of serum 6 to linear peptides of protein X4 of SARS-CoV Urbani / Binding of serum 37 to linear peptides of protein X4 of SARS-CoV Urbani / Binding of serum 37 to looped/cyclic peptides of protein X4 of SARS-CoV Urbani / Binding of serum 6 to linear peptides of protein X5 of SARS-CoV Urbani / Binding of serum 37 to linear peptides of protein X5 of SARS-CoV Urbani / Binding of serum 37 to looped/cyclic peptides of protein X5 of SARS-CoV Urbani / Binding of serum 6 to linear peptides of protein N of SARS-CoV Urbani / Binding of serum 37 to linear peptides of protein N of SARS-CoV Urbani / Binding of serum 6 to linear peptide (PEPSCAN-ELISA) / Binding of serum 1a to looped/cyclic peptides of protein N of SARS-CoV Urbani / Binding of serum 1b to looped/cyclic peptides of protein N of SARS-CoV Urbani / Binding of serum 2 to looped/cyclic peptides of protein N of SARS-CoV Urbani / Binding of serum 6 to looped/cyclic peptides of protein N of SARS-CoV Urbani / Binding of serum 37 to looped/cyclic peptides of protein N of SARS-CoV Urbani / Binding of serum 62 to looped/cyclic peptides of protein N of SARS-CoV Urbani / Binding of serum London to looped/cyclic peptides of protein N of SARS-CoV Urbani / Binding of serum SARS-green to looped/cyclic peptides of protein N of SARS-CoV Urbani: unit not given here
[4] = system: recombinant human anti-SARS-CoV antibody 03-018; type: binding; set-up: Binding of antibody 03-018 to linear peptides of the N protein of SARS-CoV Urbani / Binding of antibody 03-018 to looped/cyclic peptides of the N protein of SARS-CoV Urbani: unit not given here

Sequence	Binding of a rabbit serum to linear peptides of protein N of SARS-CoV Urbani (Rabbit serum linear peptides) [1]	Binding of a rabbit serum to looped/cyclic peptides of protein N of SARS-CoV Urbani (Rabbit serum looped peptides) [1]	Binding of Control Serum Blood-Bank to Looped peptides [2]	Binding of Control serum Blood-bank to linear peptides [2]	Binding of Control serum LUMC to linear peptides [2]	Binding of Control serum LUMC to looped peptides [2]	Binding of serum 1a to looped/cyclic peptides of protein N of SARS-CoV Urbani [3]	Binding of serum 1b to looped/cyclic peptides of protein N of SARS-CoV Urbani [3]	Binding of serum 2 to looped/cyclic peptides of protein N of SARS-CoV Urbani [3]	Binding of serum 6 to looped/cyclic peptides of protein N of SARS-CoV Urbani [3]	Binding of serum 37 to looped/cyclic peptides of protein N of SARS-CoV Urbani [3]	Binding of serum 62 to looped/cyclic peptides of protein N of SARS-CoV Urbani [3]	Binding of serum London to looped/cyclic peptides of protein N of SARS-CoV Urbani [3]	Binding of serum SARS-green to looped/cyclic peptides of protein N of SARS-CoV Urbani [3]	Binding of serum SARS-yellow to looped/cyclic peptides of protein N of SARS-CoV Urbani [3]	Binding of antibody 03-018 to linear peptides of the N protein of SARS-CoV Urbani [4]	Binding of antibody 03-018 to looped/cyclic peptides of the N protein of SARS-CoV Urbani [4]	other results
DNGPQSNQRSAPRIT	0.1	0.3	0.5	0.7	0.7	0.4	0.2	0.1	0.1	0.2	0.5	0.3	0.2	0.2	0.1	0.2	0.3	Binding of serum 1a to linear peptides of protein N of SARS-CoV Urbani [3]: 0.2; Binding of serum 1b to linear peptides of protein N of SARS-CoV Urbani [3]: 0.1; Binding of serum 2 to linear peptides of protein N of SARS-CoV Urbani [3]: 0.3; Binding of serum 6 to linear peptides of protein N of SARS-CoV Urbani [3]: 0.2; Binding of serum 37 to linear peptides of protein N of SARS-CoV Urbani [3]: 0.6; Binding of serum 62 to linear peptides of protein N of SARS-CoV Urbani [3]: 0.5; Binding of serum London to linear peptides of protein N of SARS-CoV Urbani [3]: 0.4; Binding of serum SARS-green to linear peptides of protein N of SARS-CoV Urbani [3]: 0.4; Binding of serum SARS-yellow to linear peptides of protein N of SARS-CoV Urbani [3]: 0.5
DQDLIRQGTDYKHWP	0.1	0.1	0.4	0.8	0.7	0.4	0.2	0.1	0.3	0.1	0.4	0.3	0.3	0.1	0.1	0.1	0.2	Binding of serum 1a to linear peptide (PEPSCAN-ELISA) [3]: 0.3; Binding of serum 1b to linear peptide (PEPSCAN-ELISA) [3]: 0.1; Binding of serum 2 to linear peptide (PEPSCAN-ELISA) [3]: 0.2; Binding of serum 6 to linear peptide (PEPSCAN-ELISA) [3]: 0.2; Binding of serum 37 to linear peptide (PEPSCAN-ELISA) [3]: 0.7; Binding of serum 62 to linear peptide (PEPSCAN-ELISA) [3]: 0.6; Binding of serum London to linear peptide (PEPSCAN-ELISA) [3]: 0.8; Binding of serum SARS-green to linear peptide (PEPSCAN-ELISA) [3]: 0.5; Binding of serum SARS-yellow to linear peptide (PEPSCAN-ELISA) [3]: 0.7
